Columns and labels:
ALS [1] = target: T1, ALS (Oryza sativa subsp. japonica, UniProt Q6K2E8, S627I/W548L); test: in vivo ALS assay on cut rice leaves (red colour development); type: cell-based; settings: leaves of rice with the ALS-promoter-driven BS-resistance (two-point mutated) ALS gene, 0.15 μM BS, 30 °C under light for 1 day
T1 construct: 150 mg of leaves were sampled, finely cut, and then put into a petri dish; from tissue; host or cells: rice leaves (wild-type plants)
Procedure: (§1) A treatment solution (mixed salts for 25% MS media; 500 μM (final concentration) 1,1-cyclopropanedicarboxilic acid (CPCA); 5 μg Triton X-100; and 0.15 μM (final concentration) BS) was added to the dish, and the resultant was allowed to stand at 30 ° C. under light conditions (140001×) for 1 day. After reaction, the treated leaves were put into a 1.5 ml micro tube and then 200 μl of distilled water containing 0.025% Triton X-100 was added thereto. After the solution had been allowed to stand at 60° C. for 5 minutes, extraction was carried out with sonication (frequency of 40 kHz) for 15 minutes. 200 μl of the supernatant was transferred into another tube, 20 μl of 5% (v/v) sulfuric acid was added thereto, and then the resultant was allowed to stand at 60° C. for 30 minutes. Subsequently, 100 μl of a 0.5% (w/v) creatine and 100 μl of a 5% (w/v) 1-naphthol (prepared at the time of use) dissolved in a 2.5 N NaOH solution were added to the solution. The solution was allowed to stand at 37° C. for 30 minutes. […] It is understood that in the case of wild-type rice, the ALS gene was inhibited by addition of BS so that a red color was not developed.

ALS [2] = target: T2, ALS (Oryza sativa subsp. japonica, UniProt Q6K2E8); test: as above; type: cell-based; settings: wild-type rice leaves, 0.15 μM (final concentration) BS, 30 °C under light for 1 day
T2 construct: 150 mg of leaves were sampled, finely cut, and then put into a petri dish; from tissue; host or cells: rice leaves (wild-type plants)
T2 sequence (Q6K2E8 44-644): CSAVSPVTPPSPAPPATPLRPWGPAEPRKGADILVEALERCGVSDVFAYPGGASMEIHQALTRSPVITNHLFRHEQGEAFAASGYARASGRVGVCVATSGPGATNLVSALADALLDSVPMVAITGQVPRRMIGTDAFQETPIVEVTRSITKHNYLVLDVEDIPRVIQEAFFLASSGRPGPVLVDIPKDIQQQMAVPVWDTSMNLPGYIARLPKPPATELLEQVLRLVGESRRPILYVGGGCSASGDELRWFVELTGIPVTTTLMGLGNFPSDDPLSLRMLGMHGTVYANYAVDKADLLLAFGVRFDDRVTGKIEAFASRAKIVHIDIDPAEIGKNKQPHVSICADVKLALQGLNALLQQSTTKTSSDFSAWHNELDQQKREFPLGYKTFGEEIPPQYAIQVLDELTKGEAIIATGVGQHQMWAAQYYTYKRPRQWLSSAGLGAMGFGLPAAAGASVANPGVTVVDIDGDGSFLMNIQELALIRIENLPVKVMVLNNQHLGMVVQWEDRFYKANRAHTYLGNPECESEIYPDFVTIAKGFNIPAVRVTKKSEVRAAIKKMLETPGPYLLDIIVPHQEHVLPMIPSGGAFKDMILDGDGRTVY
Procedure: as §1

T1 sequence (Q6K2E8 44-644 W548L/S627I): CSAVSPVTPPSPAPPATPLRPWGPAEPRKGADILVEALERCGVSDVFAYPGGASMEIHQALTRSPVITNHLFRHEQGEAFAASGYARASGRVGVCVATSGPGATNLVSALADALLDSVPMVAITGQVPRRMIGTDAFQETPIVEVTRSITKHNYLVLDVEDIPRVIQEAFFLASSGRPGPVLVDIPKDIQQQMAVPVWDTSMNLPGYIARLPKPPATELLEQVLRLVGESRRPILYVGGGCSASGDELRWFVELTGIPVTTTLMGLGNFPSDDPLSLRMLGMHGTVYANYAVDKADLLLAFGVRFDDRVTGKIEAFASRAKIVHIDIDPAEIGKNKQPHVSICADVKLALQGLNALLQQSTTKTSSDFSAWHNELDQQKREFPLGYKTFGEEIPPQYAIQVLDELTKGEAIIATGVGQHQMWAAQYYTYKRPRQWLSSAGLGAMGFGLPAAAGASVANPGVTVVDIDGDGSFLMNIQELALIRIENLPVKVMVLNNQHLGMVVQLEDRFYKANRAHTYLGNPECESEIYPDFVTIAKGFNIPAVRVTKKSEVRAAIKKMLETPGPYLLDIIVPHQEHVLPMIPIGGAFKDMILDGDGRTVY

Compound: COc1cc(OC)nc(Oc2cccc(Oc3nc(OC)cc(OC)n3)c2C(=O)[O-])n1.[Na+] [BS, Bispyribac sodium salt]
- ALS activity with BS added (red color development) (ALS [1]): development of a red color similar to that developed by a group of rice plants to which no BS had been added
- ALS inhibition by addition of BS (red color development) (ALS [2]): inhibited
